Test results from patent US20140163050A1, “Use of 1H-quinazoline-2,4-diones” (priority 2011, published 2014).
≈ marks a conversion by molar mass, not a printed value. Where “and” joins values, the source holds several entries; their conditions need not be identical. Equal entries are not always repeated. Entries after “also recorded” stand apart in the source; their conditions may differ. Where two headings read alike, the source gives them in different places.

Key:
[1] = C-7 plasma pharmacokinetics after single oral administration; assay type: in vivo, human
Experimental: The C-7 PK parameters were determined in plasma using non-compartmental methods using WinNonlin Pro (Version 5.2), as detailed in Table 3.
Biofluid concentrations were expressed in mass per volume units (ng/mL). All C-7 and AEDs concentrations below LLOQ were reported as zero in the concentration data listings. Concentrations below LLOQ were treated as zero in summary statistics of concentration data as well as for calculation of C-7 PK parameters. A geometric mean was not reported whenever at least one concentration was below the LLOQ (i.e. zero). Missing data were labeled as such and no imputation methods were used.
Terminal elimination rate constant (lambda_z) was calculated as the slope of the linear regression of the terminal phase of the logarithmic concentration-time profile for each individual dataset available. A minimum of three time points was used for determining lambda_z. Regression was performed without weighting, and a minimum value of 0.75 for Rsq_adjusted was necessary for acceptance.
The different areas under the concentration-time curve were calculated using the linear trapezoidal summation (both ascending and descending phase).
Descriptive statistics of pharmacokinetic parameters included mean, SD, and CV, minimum and maximum. The geometric mean was identified when presented. A range of values were presented for selected variables. Since Tmax is generally evaluated by a nonparametric method, median values and ranges were provided.
The patients received the study medication in the morning between 8:00 h and 9:00 h, at least 30 minutes after a light breakfast had been completed.

patients with PSE = experiment: PK-PD relationship, Emax model for SPR; assay type: in vivo, human; settings: for EC50: Homo sapiens, read-out: mean (SD) EC50; for EC50 / mean (SD) Emax on the logit scale: mean across the 13 patients; for EC50 (C-7 concentration at 50% of the maximum reduction in SPR) / Emax (maximum reduction in SPR on the logit scale): estimate for each patient (15, 50 or 100 mg)
Experimental: The mean SPR per eye condition and plasma PK concentrations of C-7 50, 100, and 15 mg dose groups is shown in FIG. 3, FIG. 4 and FIG. 5, respectively.
A PK-PD model was developed sequentially for the SPR data. Firstly a pharmacokinetic model was fitted using nonlinear mixed effects methodology in NONMEM version VI to describe the 13 patients with both PK and PD data. A 3 compartment disposition model with first order absorption and absorption lag time was selected to describe the pharmacokinetic time profile for each patient. The between patient variability was described by exponential random effects on each pharmacokinetic parameter, with all parameters assumed to be independent between individuals. The residual error model combined the additive and proportional error terms. The estimated pharmacokinetic parameters for each patient were used to generate each patient's PK profile as an input to the pharmacodynamic model.
For the Pharmacodynamic response, SPR, an Emax model was fitted on the logit transformed scale:
where Base is the baseline SPR on the logit scale, Emax is the maximum reduction in SPR on the logit scale, EC50 is the concentration at which the 50% of the maximum reduction is obtained and C is C-7 concentration. For each patient, the PD parameters for the three eye conditions, eyes closure, eyes closed and eyes open, were estimated separately but with a common additive residual variance on the logit scale. The PD parameter estimates were highly variable across the 13 patients, with the estimation having trouble identifying Emax and EC50 (see Table 6 below).

mouse = experiment: Oral bioavailability: in vivo orally active (audiogenic mouse test and/or MES test)
Experimental: The oral bioavailability was tested using the audiogenic mouse test (Audiogenic seizures, R. L. Collins; Chapter 14, pages: 347-372. In: Experimental Models of Epilepsy; By: Pupura, Penry, Tower, Woodbury, Walter, Raven Press, New York, 1972. Standard Book Number: 0-911216-26-X) and/or the MES test.

[2] = PK of concomitant AEDs on co-administration of C-7; assay type: in vivo, human; settings: C-7 on Day 2; AED PK profiles Day 1 vs Days 2 and 3
Experimental: Similar AEDs concentration-time profiles were observed on Days 1, 2 and 3 for each patient. Two of the patients in Cohort I were also enrolled in Cohort II. Their lamotrigine PK profiles were similar in the 2 treatment periods. These observations confirm stable pre-existing treatment for all the patients.
AED concentrations were listed and summarized; analysis of level of exposure of AED(s) taken by the patient was performed on an ad-hoc basis as it depended on specifics of the AED.

[3] = Cohort I, C-7 50 mg, individual patients
[4] = Cohort II, C-7 100 mg, individual patients
[5] = Cohort III, C-7 15 mg, individual patients
[6] = patients with PSE (after light breakfast) vs healthy volunteer study (fasted)

CC(C)c1cc2[nH]c(=O)n(NS(C)(=O)=O)c(=O)c2cc1-c1ccnn1C [Compound C-7, N-[7-Isopropyl-6-(2-methyl-2H-pyrazol-3-yl)-2,4-dioxo-1,4-dihydro-2H-quinazolin-3-yl]-methanesulfonamide]
AUC0-24 h [1, 3]: 9838 ng·h/mL and 12564 ng·h/mL and 14162 ng·h/mL and 7043 ng·h/mL | Cmax [1, 3]: 1910 ng/mL and 2140 ng/mL and 2800 ng/mL and 1410 ng/mL | Tmax [1, 3]: 2.00 h and 2.92 h and 3.98 h and 3.87 h | AUC0-24 h [1, 4]: 17924 ng·h/mL and 13877 ng·h/mL | Cmax [1, 4]: 3470 ng/mL and 2950 ng/mL | Tmax [1, 4]: 2.88 h and 2.00 h | AUC0-24 h [1, 5]: 2906 ng·h/mL and 3878 ng·h/mL | Cmax [1, 5]: 634 ng/mL and 701 ng/mL | Tmax [1, 5]: 4.00 h and 1.97 h | AUC(0-t) ([1]; human, plasma, oral, 15 mg, Cohort III, C-7 15 mg, individual patients, read-out: AUC0-24 h): 4270 ng·h/mL | Cmax ([1]; human, plasma, oral, 15 mg, Cohort III, C-7 15 mg, individual patients, read-out: Cmax): 581 ng/mL | Cmax ([1]; human, plasma, oral, 50 mg, Cohort I, C-7 50 mg, individual patients, read-out: Cmax): 1530 ng/mL | Tmax ([1]; human, plasma, oral, 50 mg, Cohort I, C-7 50 mg, individual patients, read-out: Tmax): 3 h | AUC(0-t) ([1]; human, plasma, oral, 100 mg, Cohort II, C-7 100 mg, individual patients, read-out: AUC0-24 h): 21300 ng·h/mL | Cmax ([1]; human, plasma, oral, 100 mg, Cohort II, C-7 100 mg, individual patients, read-out: Cmax): 3700 ng/mL | Tmax ([1]; human, plasma, oral, 100 mg, Cohort II, C-7 100 mg, individual patients, read-out: Tmax): 3 h | AUC(0-t) ([1]; human, plasma, po, 15 mg, plasma, single oral 15 mg, Cohort III, n = 3, geometric mean [% CV geo mean], read-out: AUC0-6 hr): 2130 ng·h/mL | AUC(0-t) ([1]; human, plasma, po, 15 mg, plasma, single oral 15 mg, Cohort III, n = 3, geometric mean [% CV geo mean], read-out: AUC0-24 hr): 3640 ng·h/mL | AUC(0-t) ([1]; human, plasma, po, 15 mg, plasma, single oral 15 mg, Cohort III, n = 3, geometric mean [% CV geo mean], read-out: AUClast): 3660 ng·h/mL | Cmax ([1]; human, plasma, po, 15 mg, plasma, single oral 15 mg, Cohort III, n = 3, geometric mean [% CV geo mean], read-out: Cmax): 637 ng/mL | Tmax ([1]; human, plasma, po, 15 mg, plasma, single oral 15 mg, Cohort III, n = 3, median (min-max), read-out: Tmax): 2.98 h | AUC(0-t) ([1]; human, plasma, po, 50 mg, plasma, single oral 50 mg, Cohort I, n = 6, geometric mean [% CV geo mean], read-out: AUC0-6 hr): 6790 ng·h/mL | AUC(0-t) ([1]; human, plasma, po, 50 mg, plasma, single oral 50 mg, Cohort I, n = 6, geometric mean [% CV geo mean], read-out: AUC0-24 hr): 10600 ng·h/mL | AUC(0-t) ([1]; human, plasma, po, 50 mg, plasma, single oral 50 mg, Cohort I, n = 6, geometric mean [% CV geo mean], read-out: AUClast): 10700 ng·h/mL | Cmax ([1]; human, plasma, po, 50 mg, plasma, single oral 50 mg, Cohort I, n = 6, geometric mean [% CV geo mean], read-out: Cmax): 1990 ng/mL | Tmax ([1]; human, plasma, po, 50 mg, plasma, single oral 50 mg, Cohort I, n = 6, median (min-max), read-out: Tmax): 2.96 h | AUC(0-t) ([1]; human, plasma, po, 100 mg, plasma, single oral 100 mg, Cohort II, n = 4, geometric mean [% CV geo mean], read-out: AUC0-6 hr): 10200 ng·h/mL | AUC(0-t) ([1]; human, plasma, po, 100 mg, plasma, single oral 100 mg, Cohort II, n = 4, geometric mean [% CV geo mean], read-out: AUC0-24 hr): 16900 ng·h/mL | AUC(0-t) ([1]; human, plasma, po, 100 mg, plasma, single oral 100 mg, Cohort II, n = 4, geometric mean [% CV geo mean], read-out: AUClast): 17000 ng·h/mL | Cmax ([1]; human, plasma, po, 100 mg, plasma, single oral 100 mg, Cohort II, n = 4, geometric mean [% CV geo mean], read-out: Cmax): 2980 ng/mL | Tmax ([1]; human, plasma, po, 100 mg, plasma, single oral 100 mg, Cohort II, n = 4, median (min-max), read-out: Tmax): 2.94 h | mean AUClast in patients higher than in healthy male subjects [1, 6]: 10-40% | mean Cmax in patients higher than in healthy male subjects [1, 6]: 10-20% | Tlag ([1]; plasma, single oral 15 mg, Cohort III, n = 3, median (min-max)): 0.00 (0.00-0.00) hr | Tlag ([1]; plasma, single oral 50 mg, Cohort I, n = 6, median (min-max)): 0.00 (0.00-0.00) hr | Tlag ([1]; plasma, single oral 100 mg, Cohort II, n = 4, median (min-max)): 0.00 (0.00-0.00) hr | earliest time C-7 measurable in plasma ([1]; single 15, 50 or 100 mg dose): 0.25 h post-dose | time of peak plasma concentration (median) ([1]; single 15, 50 or 100 mg dose): around 3 h post-dose | time of peak plasma concentration, maximum in individual patients ([1]; single 15, 50 or 100 mg dose): 4 h | time of peak plasma concentration, minimum in individual patients ([1]; single 15, 50 or 100 mg dose): approximately 2 h | EC50 (patients with PSE; eyes closed): 3.75 µg/mL (≈ 9.93 µM) | EC50 (patients with PSE; eyes closures): 2.25 µg/mL (≈ 5.97 µM) | EC50 (patients with PSE; eyes open): 2.96 µg/mL (≈ 7.85 µM) | EC50 (C-7 concentration at 50% of the maximum reduction in SPR) (patients with PSE; eyes closed): 0.219 µg/mL and 0.005 µg/mL and 1.17 µg/mL and 0.31 µg/mL and 2.04 µg/mL and 0.229 µg/mL and 9.9 µg/mL and 2.08 µg/mL and 9.2 µg/mL | Emax (maximum reduction in SPR on the logit scale) (patients with PSE; eyes closed): 0.963 and 2.54 and 1.79 and 2.47 and 6.99 and 0.58 and 0.05 and 30.9 and 49.5 (3×) and 0.487 | mean (SD) Emax on the logit scale (patients with PSE; eyes closed): 16.3 (21.7) | EC50 (C-7 concentration at 50% of the maximum reduction in SPR) (patients with PSE; eyes closure): 1.69 µg/mL and 9.9 µg/mL and 0.32 µg/mL and 0.788 µg/mL and 1.27 µg/mL and 0.005 µg/mL and 0.01 µg/mL and 0.814 µg/mL and 1.41 µg/mL and 3.08 µg/mL and 0.0833 µg/mL | Emax (maximum reduction in SPR on the logit scale) (patients with PSE; eyes closure): 2.38 and 41.5 and 0.571 and 49.5 (2×) and 3.25 and 2.39 and 0.05 (2×) and 9.23 and 1.31 and 7.67 and 0.495 | mean (SD) Emax on the logit scale (patients with PSE; eyes closures): 12.9 (19.6) | EC50 (C-7 concentration at 50% of the maximum reduction in SPR) (patients with PSE; eyes open): 1.47 µg/mL and 9.9 µg/mL and 0.629 µg/mL and 0.131 µg/mL and 0.005 µg/mL and 0.137 µg/mL and 1.61 µg/mL and 1.88 µg/mL | Emax (maximum reduction in SPR on the logit scale) (patients with PSE; eyes open): 1.14 and 40.8 and 1.03 and 49.5 (4×) and 14.5 and 1.29 and 0.05 (2×) and 2.66 | mean (SD) Emax on the logit scale (patients with PSE; eyes open): 21.6 (23.5) | In vivo orally active (mouse): Yes | effect of co-administration of C-7 on the AED PK [2]: did not seem to affect the AED PK; also recorded: did not seem to affect the PK of selected AEDs; also recorded: did not appear to affect the AED PK
